ChEMBL document CHEMBL1201862, “PubChem BioAssay data set” (2004)
Where “and” joins values, the source holds several entries; their conditions need not be identical. Equal values may be shown once.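 Test compounds were applied to cells in 96-well plates for 48 hours at 5 doses. Here, GI50 denotes the concentration required for 50% inhibition of growth.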 Calls of active or inactive are those of the source. Rule as the data show it: active = GI50 up to about 1.1 µM and inactive = higher.

Key:
Test in all cases: NCI tumour cell line growth inhibition, 48 h
786-0 = test system: 786-0
A498 = test system: A498
COLO 205 = test system: COLO 205
HCT-116 = test system: HCT-116
HT-29 = test system: HT-29
M14 = test system: M14
MCF7 = test system: MCF7
MDA-MB-435 = test system: MDA-MB-435
NCI-H23 = test system: NCI-H23
OVCAR-5 = test system: OVCAR-5
RXF 393 = test system: RXF 393
SF-268 = test system: SF-268
SK-OV-3 = test system: SK-OV-3
SNB-75 = test system: SNB-75
T47D = test system: T47D
TK-10 = test system: TK-10
UACC-62 = test system: UACC-62
CAKI-1 = test system: CAKI-1
CCRF-CEM = test system: CCRF-CEM
K562 = test system: K562

Row | SMILES | GI50 (786-0) | GI50 (A498) | GI50 (COLO 205) | GI50 (HCT-116) | GI50 (HT-29) | GI50 (M14) | GI50 (MCF7) | GI50 (MDA-MB-435) | GI50 (NCI-H23) | GI50 (OVCAR-5) | GI50 (RXF 393) | GI50 (SF-268) | GI50 (SK-OV-3) | GI50 (SNB-75) | GI50 (T47D) | GI50 (TK-10) | GI50 (UACC-62) | GI50 (CAKI-1) | GI50 (CCRF-CEM) | GI50 (K562)
1 | O=C(Cc1ccccc1)NN1C(=O)/C(=C\c2ccccc2O)S/C1=N\c1ccccc1 | > 100 µM (inactive) | > 100 µM (inactive) | > 100 µM (inactive) | > 100 µM (inactive) | > 100 µM (inactive) | > 100 µM (inactive) | > 100 µM (inactive) | > 100 µM (inactive) | > 100 µM (inactive) | > 100 µM (inactive) | > 100 µM (inactive) | > 100 µM (inactive) | > 100 µM (inactive) | > 100 µM (inactive) | > 100 µM (inactive) | > 100 µM (inactive) | > 100 µM (inactive) |  |  | 
2 | C=C(C)c1cc(C(C)(C)C)cc(C(=C)C)c1S(C)(=O)=O | > 100 µM (inactive) | > 100 µM (inactive) | 0.596 µM (active) | > 100 µM (inactive) | > 100 µM (inactive) | > 100 µM (inactive) | > 100 µM (inactive) | > 100 µM (inactive) | > 100 µM (inactive) | > 100 µM (inactive) |  | > 100 µM (inactive) | > 100 µM (inactive) | > 100 µM (inactive) | 10.7 µM (inactive) | > 100 µM (inactive) | > 100 µM (inactive) | > 100 µM (inactive) | > 100 µM (inactive) | > 100 µM (inactive)
3 | CC(C)(C)C(=O)c1c(O)c2ccccc2c2ccccc2c1=O | > 100 µM (inactive) | 50.6 µM (inactive) | > 100 µM (inactive) | > 100 µM (inactive) | 49.7 µM (inactive) | 95.3 µM (inactive) | > 100 µM (inactive) | > 100 µM (inactive) | 41 µM (inactive) | > 100 µM (inactive) |  | > 100 µM (inactive) | > 100 µM (inactive) | 30.9 µM (inactive) | 52.1 µM (inactive) | 97.5 µM (inactive) | 76.4 µM (inactive) | > 100 µM (inactive) | > 100 µM (inactive) | 
4 | O=C1c2cc(O)c(O)cc2O[C@H](c2ccc(O)c(O)c2)[C@H]1O | > 100 µM (inactive) | > 100 µM (inactive) | > 100 µM (inactive) | > 100 µM (inactive) | > 100 µM (inactive) | > 100 µM (inactive) | > 100 µM (inactive) | > 100 µM (inactive) | 45.4 µM (inactive) | > 100 µM (inactive) |  | > 100 µM (inactive) | > 100 µM (inactive) | > 100 µM (inactive) | > 100 µM (inactive) | > 100 µM (inactive) | > 100 µM (inactive) | > 100 µM (inactive) | 68.4 µM (inactive) | > 100 µM (inactive)
5 | CCOC(=O)Cc1[nH]c(C(=O)c2ccccc2)cc1C(=O)c1ccccc1 | > 10 µM (inactive) | 36.8 µM (inactive) | 21.7 µM (inactive) | 17.5 µM (inactive) | > 10 µM (inactive) | 88.1 µM (inactive) | > 10 µM (inactive) | 13.8 µM (inactive) | 17.4 µM (inactive) | > 10 µM (inactive) | 24.3 µM (inactive) | 56.4 µM (inactive) | > 100 µM (inactive) | 59.8 µM (inactive) | 17.7 µM (inactive) | 36 µM (inactive) | > 100 µM (inactive) |  | > 10 µM (inactive) | > 10 µM (inactive)
6 | CCCCCCC(=O)O[C@H]1CC[C@H]2[C@@H]3CCC4C/C(=N/NC(=O)c5cccc6c(=O)c7ccccc7[nH]c56)C=C(C)[C@]4(C)[C@H]3CC[C@]12C (stereo not given in full) | > 25 µM (inactive) |  | > 25 µM (inactive) | > 25 µM (inactive) | > 25 µM (inactive) | > 25 µM (inactive) | > 25 µM (inactive) | > 25 µM (inactive) | > 25 µM (inactive) | > 25 µM (inactive) |  | > 25 µM (inactive) | > 25 µM (inactive) | > 25 µM (inactive) | > 25 µM (inactive) | > 25 µM (inactive) | > 25 µM (inactive) | > 25 µM (inactive) | > 25 µM (inactive) | > 25 µM (inactive)
7 | COC(=O)C1=C(OC(=O)/C=C/c2ccc(Cl)cc2)C(C(=O)OC)[C@]2(O)[C@@H](C(=O)OC)[C@H]1C[C@@H](c1ccccc1)[C@@H]2C(=O)OC (stereo not given in full) | 4.92 µM (inactive) | 6.04 µM (inactive) | 4.43 µM (inactive) | 3.53 µM (inactive) | 7.74 µM (inactive) | 6.1 µM (inactive) |  | 3.82 µM (inactive) | 3.44 µM (inactive) | 17.7 µM (inactive) | 9.29 µM (inactive) | 4.66 µM (inactive) | 29.9 µM (inactive) | 12.3 µM (inactive) | 5.87 µM (inactive) | > 30.3 µM (inactive) | 7.45 µM (inactive) | 11.1 µM (inactive) | 3.31 µM (inactive) | 4.54 µM (inactive)
8 | Nc1ccn(C2CC(O)C(COP(=O)(S)OC3CC(n4ccc(N)nc4=O)OC3CO)O2)c(=O)n1 (stereo not given) | > 100 µM (inactive) |  | 13.8 µM (inactive) | > 100 µM (inactive) | > 100 µM (inactive) | > 100 µM (inactive) | > 100 µM (inactive) | > 100 µM (inactive) | > 100 µM (inactive) | > 100 µM (inactive) |  | > 100 µM (inactive) |  | 36.5 µM (inactive) | > 100 µM (inactive) | > 100 µM (inactive) | > 100 µM (inactive) | > 100 µM (inactive) | > 100 µM (inactive) | 
9 | COc1ccccc1/N=N/c1c(O)ccc2ccccc12 | 13.8 µM (inactive) and 19.3 µM (inactive) | 32.1 µM (inactive) and 23.5 µM (inactive) | 56.8 µM (inactive) and 64.7 µM (inactive) | 33.4 µM (inactive) and 29 µM (inactive) | 34.6 µM (inactive) and 30.7 µM (inactive) |  | 52.8 µM (inactive) | 74 µM (inactive) and 78.2 µM (inactive) | 21.7 µM (inactive) and 31.4 µM (inactive) | 40.1 µM (inactive) and 38.9 µM (inactive) |  | 29.9 µM (inactive) and 33.4 µM (inactive) | 13.6 µM (inactive) and 18.3 µM (inactive) | 18.7 µM (inactive) and 19.6 µM (inactive) | 23.3 µM (inactive) and 38.2 µM (inactive) | 14.6 µM (inactive) and 23.4 µM (inactive) |  | 18.7 µM (inactive) and 25.6 µM (inactive) |  | > 100 µM (inactive) and 82.8 µM (inactive)
10 | O=C1N(C2CCCCC2)C(=O)N1C1CCCCC1 | 0.362 µM (active) | 0.16 µM (active) | 0.467 µM (active) | 0.113 µM (active) | 0.701 µM (active) | 1.24 µM (inactive) | 0.723 µM (active) | 2.08 µM (inactive) | 0.83 µM (active) | 1.83 µM (inactive) |  | 0.75 µM (active) | 5.15 µM (inactive) | 0.142 µM (active) | 0.56 µM (active) | 2.34 µM (inactive) | 0.21 µM (active) | 1.04 µM (active) | 0.04 µM (active) | 0.0875 µM (active)
11 | O=C(O/C=C\OC1CCCC1(c1ccccc1)c1ccccc1)c1ccccc1 (stereo not given) | 4.03 µM (inactive) | 23.1 µM (inactive) | 15.6 µM (inactive) | 2.51 µM (inactive) | 3.44 µM (inactive) | 2.79 µM (inactive) | 2.6 µM (inactive) |  | 2.19 µM (inactive) | 16.8 µM (inactive) | 2.49 µM (inactive) | 4.05 µM (inactive) | 16.5 µM (inactive) | 3.83 µM (inactive) | 1.61 µM (inactive) | 5.01 µM (inactive) | 6.28 µM (inactive) | > 46.1 µM (inactive) | 2.04 µM (inactive) | 4.19 µM (inactive)
12 | SC1=C2CCCCCC2=NC2(CCCCCC2)S1 | 33.1 µM (inactive) |  | 17.7 µM (inactive) | 26.9 µM (inactive) | 24.9 µM (inactive) | 35.2 µM (inactive) | 19 µM (inactive) | 30.5 µM (inactive) | 9.12 µM (inactive) | 30.5 µM (inactive) | 32.6 µM (inactive) | 41.7 µM (inactive) | 62.8 µM (inactive) | 19.2 µM (inactive) | 17.4 µM (inactive) | 24.7 µM (inactive) | 26.8 µM (inactive) | 31.5 µM (inactive) | 33.6 µM (inactive) | 12.2 µM (inactive)
13 | C=C1C(=O)C23C(O)C1CC[C@H]2C12CCCC(C)(COC(C)=O)[C@H]1[C@H](O)[C@]3(O)OC2 (stereo not given in full) | 0.966 µM (active) | 2.32 µM (inactive) | 1.46 µM (inactive) | 1.06 µM (active) | 1.8 µM (inactive) | 1.1 µM (active) | 1.78 µM (inactive) |  | 1.87 µM (inactive) | 2.36 µM (inactive) | 0.407 µM (active) | 3.19 µM (inactive) | 4.63 µM (inactive) | 1.53 µM (inactive) | 1.3 µM (inactive) | 1.63 µM (inactive) | 1.58 µM (inactive) | 1.16 µM (inactive) | 0.211 µM (active) | 0.128 µM (active)
14 | COC(=O)c1cnc(Cl)cn1 | > 100 µM (inactive) |  | > 100 µM (inactive) | 38.2 µM (inactive) | 54.3 µM (inactive) | 53.8 µM (inactive) | 38.4 µM (inactive) | 48.4 µM (inactive) | 20.1 µM (inactive) | 58.3 µM (inactive) |  | 49 µM (inactive) | > 100 µM (inactive) | 90.4 µM (inactive) | 40.3 µM (inactive) | > 100 µM (inactive) | 33 µM (inactive) | 17.5 µM (inactive) | 35.9 µM (inactive) | 40.1 µM (inactive)
